In patent publication US20220288004A1, “TREATMENT AND PREVENTION OF AGING RELATED-DISEASE AND/OR AGING BY THE INHIBITION OF SPHINGOLIPIDS” (ECOLE POLYTECHNIQUE FEDERALE DE LAUSANNE (EPFL), priority 2019, published 2022):
Entries after “also recorded” stand apart in the source; their conditions may differ.

Key:
aged C57Bl/6JRj mice = experiment: Transplantation of MuSCs from myriocin treated donors into cardiotoxin-injured aged C57Bl/6JRj recipients; format: in vivo, mouse
Source text: Decline in tissue regenerative potential is a major hallmark of mammalian aging, including skeletal muscle. It was next asked the question whether myriocin treatment induces functional improvement of MuSCs, boosting their regenerative capacity. MuSCs from aged mice treated or untreated with myriocin for 5 months were isolated, and transplanted into tibialis anterior (TA) muscles of recipient mice. The recipient mice were either aged (20-month-old) C57Bl/6JRj or aged (1-year-old) mdx mice, a mouse model of Duchenne muscular dystrophy lacking dystrophin protein (FIG. 4a). Before MuSC transplantation, injury was induced by cardiotoxin injection to TA of all recipient mice. […] At both 7 and 14 days after transplantation the inflammatory area was also smaller (FIG. 12a-b) in mdx recipients of MuSCs isolated from myriocin treated mice. […] Thus, transplantation of MuSCs derived from myriocin treated donors induce major morphological improvements following cardiotoxin-induced muscle injury.
To test whether the functional improvement of MuSCs upon myriocin treatment also translates into better muscle function of recipient mice, tests of muscle function were performed before and 7 days after MuSC transplantation.
Endurance running test. The exercise regimen on a treadmill commenced at a speed of 9 cm/s. As the mice were aged, an inclination of 0 degrees was used. Mice were considered to be exhausted, and removed from the treadmill if they received 7 or more shocks (0.2 mA) per minute for two consecutive minutes. The distance traveled and time before exhaustion were registered as maximal running distance and time.
Grip strength. Muscle strength was assessed by grip strength test. The grip strength of each mouse was measured on a pulldown grid assembly connected to a grip strength meter (Columbus Instruments). The mouse was drawn along a straight line parallel to the grip, providing peak force. The experiment was repeated three times, and the highest value was included in the analysis.
Rotarod test. The rotarod test measures muscle strength, coordination, and endurance. Mice were left undisturbed in the room for 30 min. The speed of the rotating cylinder (rotarod) increased from 0 to 40 rpm in 5 min. Each mouse had 3 trials per day for 3 consecutive days. The latency and speed the mouse reached it passive rotation or fall from the rotor was recorded, and the latency and speed of the best trial of the second day is presented.
Cardiotoxin-induced muscle damage and MuSC transplantation. MuSCs were transplanted from donor mice to recipient mice. The donor mice were aged male C57Bl/6JRj mice, whose treatment with myriocin was started at the age of 18 months. The recipient mice were either aged (18-month-old) male C57Bl/6JRj mice or 1-year-old male mdx mice. 50 μL of 20 μM Naje Mossambica mossambica cardiotoxin (Sigma) was injected intramuscularly into the tibialis anterior (TA) muscle of recipient mice before transplantation. 24 h after CTX injection, equal number (1500) of freshly isolated MuSCs from donor mice were injected intramuscularly into the TA muscle. Recipient mice were sacrificed at 7 and 14 days after transplantation.
Histology. TA muscles were harvested from anesthetized mice, and immediately embedded in Thermo Scientific™ Shandon™ Cryomatrix™ and frozen in isopentane, cooled in liquid nitrogen, for 1 min before being transferred to dry ice and stored at −80° C. 8 μm cryosections were incubated in 4% PFA for 15 min, washed three times for 10 min with PBS, incubated for antigen retrieval in pH 6.0 citrate buffer for 10 min at 95° C. (for PAX7 antibody), counterstained with DAPI, laminin (1:200, Sigma), PAX7 (1:200, DSHB, University of Iowa), dystrophin (1:100, Spring Bioscience) or eMyHC (1:50, DSHB, University of Iowa), coupled with Alexa-488 or Alexa-568 fluorochromes (Life Technology) and mounted with Dako Mounting Medium. Microscopy images of fluorescence from muscle fibers were analyzed using the ImageJ software. […]

[1] = test system: skeletal muscle of aged mice; experiment: Proteostasis (A11 staining) in skeletal muscle of aged mice; format: in vivo, mouse
Procedure: FIG. 17. […] Values are expressed as mean±s.e.m. *P≤0.05. Differences between two groups were assessed using Student's two-tailed t-tests (error bars: 95% confidence intervals).

[2] = aged C57Bl/6JRj recipients of MuSCs from myriocin treated donors, 7 days
[3] = aged recipients of MuSCs from myriocin treated mice, 7 days after transplantation, change relative to baseline

SMILES: CCCCCCC(=O)CCCCCCC=CCC(O)C(O)C(N)(CO)C(=O)O (centres unmarked) [myriocin, 2-Amino-3,4-dihydroxy-2-(hydroxymethyl)-14-oxoicos-6-enoic acid]
- inflammatory area of TA (aged C57Bl/6JRj mice; aged C57Bl/6JRj recipients of MuSCs from myriocin treated donors, 7 and 14 days after injury): smaller
- count of PAX7+ cells per field and per section (aged C57Bl/6JRj mice; [2]): increased count
- embryonic myosin heavy chain (eMyHC) positive area (aged C57Bl/6JRj mice; [2]): higher
- exercise capacity (maximal running distance) (aged C57Bl/6JRj mice; [3]): improved
- grip strength (aged C57Bl/6JRj mice; [3]): improved
- latency in rotarod test (aged C57Bl/6JRj mice; [3]): increased latency
- proteostasis in skeletal muscle ([1]; aged mice treated with myriocin): improves proteostasis; also recorded: promoted proteostasis
- amyloid beta aggregates (A11 staining) ([1]; skeletal muscle of aged mice treated with myriocin): cleared amyloid beta aggregates
